Test results taken from ChEMBL document CHEMBL1151441, “Antimicrobial susceptibilities and clinical sources of Dialister species” (2007).
Values after ≈ are worked out from the molar mass of the structure shown.

Key:
Type in all cases: functional
[1] = tested on: Dialister pneumosintes; test: Antimicrobial activity against Dialister pneumosintes by agar dilution method
[2] = tested on: Dialister micraerophilus; test: Antimicrobial activity against Dialister micraerophilus by agar dilution method
[3] = tested on: Dialister pneumosintes; test: Antimicrobial activity against Dialister pneumosintes assessed as susceptibility breakpoint by CA-SFM method
[4] = tested on: Dialister micraerophilus; test: Antimicrobial activity against Dialister micraerophilus assessed as susceptibility breakpoint by CA-SFM method
[5] = tested on: Dialister propionicifaciens; test: Antimicrobial activity against Dialister propionicifaciens by agar dilution method
[6] = tested on: Dialister invisus; test: Antimicrobial activity against Dialister invisus by agar dilution method
[7] = tested on: Dialister pneumosintes; test: Antimicrobial activity against Dialister pneumosintes assessed as susceptibility breakpoint by CLSI method
[8] = tested on: Dialister micraerophilus; test: Antimicrobial activity against Dialister micraerophilus assessed as susceptibility breakpoint by CLSI method
[9] = tested on: Dialister propionicifaciens; test: Antimicrobial activity against Dialister propionicifaciens assessed as susceptibility breakpoint by CLSI method
[10] = tested on: Dialister invisus; test: Antimicrobial activity against Dialister invisus assessed as susceptibility breakpoint by CLSI method
[11] = tested on: Dialister propionicifaciens; test: Antimicrobial activity against Dialister propionicifaciens assessed as susceptibility breakpoint by CA-SFM method
[12] = tested on: Dialister invisus; test: Antimicrobial activity against Dialister invisus assessed as susceptibility breakpoint by CA-SFM method

| MIC [1] | MIC50 [1] | MIC90 [1] | MIC [2] | MIC50 [2] | MIC90 [2] | MIC [5] | MIC [6] | SMILES | Activity [3] | Activity [4] | Activity [7] | Activity [8] | Activity [9] | Activity [10] | Activity [11] | Activity [12] |
| --- | --- | --- | --- | --- | --- | --- | --- | --- | --- | --- | --- | --- | --- | --- | --- | --- |
| ≤ 0.06 µg/mL | ≤ 0.06 µg/mL | 0.06 µg/mL (≈ 0.149 µM) | ≤ 0.06 µg/mL | ≤ 0.06 µg/mL | 0.25 µg/mL (≈ 0.623 µM) | ≤ 0.06 µg/mL | ≤ 0.06 µg/mL | COc1c(N2C[C@@H]3CCCN[C@@H]3C2)c(F)cc2c(=O)c(C(=O)O)cn(C3CC3)c12 [MOXIFLOXACIN] | <=1 ug ml-1 | <=1 ug ml-1 |  |  |  |  |  |  |
| 0.5 µg/mL (≈ 1.17 µM) | 0.5 µg/mL (≈ 1.17 µM) | 1 µg/mL (≈ 2.34 µM) | 0.5 µg/mL (≈ 1.17 µM) | 0.5 µg/mL (≈ 1.17 µM) | 0.5 µg/mL (≈ 1.17 µM) | 0.5 µg/mL (≈ 1.17 µM) | 0.5 µg/mL (≈ 1.17 µM) | CO[C@@]1(NC(=O)Cc2cccs2)C(=O)N2C(C(=O)O)=C(COC(N)=O)CS[C@@H]21 [CEFOXITIN] | <=8 ug ml-1 | <=8 ug ml-1 | <=16 ug ml-1 | <=16 ug ml-1 | <=16 ug ml-1 | <=16 ug ml-1 | <=8 ug ml-1 | <=8 ug ml-1 |
| 0.125 µg/mL (≈ 0.263 µM) | 0.125 µg/mL (≈ 0.263 µM) | 0.125 µg/mL (≈ 0.263 µM) | 0.125 µg/mL (≈ 0.263 µM) |  |  | 0.125 µg/mL (≈ 0.263 µM) |  | C[C@@H](O)[C@H]1C(=O)N2C(C(=O)O)=C(S[C@@H]3CN[C@H](C(=O)Nc4cccc(C(=O)O)c4)C3)[C@H](C)[C@H]12 | <=4 ug ml-1 | <=4 ug ml-1 | <=4 ug ml-1 | <=4 ug ml-1 | <=4 ug ml-1 | <=4 ug ml-1 | <=4 ug ml-1 | <=4 ug ml-1 |
| ≤ 0.125 µg/mL | 1 µg/mL (≈ 1.93 µM) | 16 µg/mL (≈ 30.9 µM) |  | 0.125 µg/mL (≈ 0.242 µM) | 1 µg/mL (≈ 1.93 µM) | 0.125 µg/mL (≈ 0.242 µM) | 0.125 µg/mL (≈ 0.242 µM) | CCN1CCN(C(=O)N[C@@H](C(=O)N[C@@H]2C(=O)N3[C@@H]2SC(C)(C)[C@@H]3C(=O)O)c2ccccc2)C(=O)C1=O [PIPERACILLIN] | <=8 ug ml-1 | <=8 ug ml-1 | <=32 ug ml-1 | <=32 ug ml-1 | <=32 ug ml-1 | <=32 ug ml-1 | <=8 ug ml-1 | <=8 ug ml-1 |
| 0.25 µg/mL | 0.25 µg/mL | 0.5 µg/mL | 0.25 µg/mL |  |  | 0.25 µg/mL |  | C[C@H]1COc2c(N3CCN(C)CC3)c(F)cc3c(=O)c(C(=O)O)cn1c23.C[C@H]1COc2c(N3CCN(C)CC3)c(F)cc3c(=O)c(C(=O)O)cn1c23.O [LEVOFLOXACIN] | <=1 ug ml-1 | <=1 ug ml-1 |  |  |  |  | <=1 ug ml-1 | <=1 ug ml-1 |
| 0.125 µg/mL (≈ 0.294 µM) | 0.125 µg/mL (≈ 0.294 µM) | 0.125 µg/mL (≈ 0.294 µM) | 0.125 µg/mL (≈ 0.294 µM) | 0.125 µg/mL (≈ 0.294 µM) | 0.125 µg/mL (≈ 0.294 µM) | 0.125 µg/mL (≈ 0.294 µM) | 0.125 µg/mL (≈ 0.294 µM) | CCC[C@@H]1C[C@@H](C(=O)N[C@@H]([C@H]2O[C@H](SC)[C@H](O)[C@@H](O)[C@H]2O)[C@H](C)Cl)N(C)C1 [CLINDAMYCIN] | <=2 ug ml-1 | <=2 ug ml-1 | <=2 ug ml-1 | <=2 ug ml-1 | <=2 ug ml-1 | <=2 ug ml-1 | <=2 ug ml-1 | <=2 ug ml-1 |
| 0.25 µg/mL (≈ 0.631 µM) | 0.5 µg/mL (≈ 1.26 µM) | 1 µg/mL (≈ 2.52 µM) | 0.25 µg/mL (≈ 0.631 µM) |  |  | 0.25 µg/mL (≈ 0.631 µM) |  | CC(=O)OCC1=C(C(=O)O)N2C(=O)[C@@H](NC(=O)Cc3cccs3)[C@H]2SC1 [CEPHALOTHIN] | <=8 ug ml-1 | <=8 ug ml-1 |  |  |  |  | <=8 ug ml-1 | <=8 ug ml-1 |
| ≤ 0.06 µg/mL | ≤ 0.06 µg/mL | 0.25 µg/mL (≈ 0.835 µM) |  | 0.06 µg/mL (≈ 0.2 µM) | ≤ 0.06 µg/mL | ≤ 0.06 µg/mL | 0.06 µg/mL (≈ 0.2 µM) | C[C@@H](O)[C@H]1C(=O)N2C(C(=O)O)=C(SCCNC=N)C[C@H]12 [IMIPENEM ANHYDROUS] | <=4 ug ml-1 | <=4 ug ml-1 | <=4 ug ml-1 | <=4 ug ml-1 | <=4 ug ml-1 | <=4 ug ml-1 | <=4 ug ml-1 | <=4 ug ml-1 |
| 0.25 µg/mL (≈ 0.774 µM) | 0.25 µg/mL (≈ 0.774 µM) | 0.5 µg/mL (≈ 1.55 µM) | 0.25 µg/mL (≈ 0.774 µM) | 0.25 µg/mL (≈ 0.774 µM) | 1 µg/mL (≈ 3.09 µM) | 0.25 µg/mL (≈ 0.774 µM) | 0.25 µg/mL (≈ 0.774 µM) | O=C(N[C@H](CO)[C@H](O)c1ccc([N+](=O)[O-])cc1)C(Cl)Cl [CHLORAMPHENICOL] | <=8 ug ml-1 | <=8 ug ml-1 | <=8 ug ml-1 | <=8 ug ml-1 | <=8 ug ml-1 | <=8 ug ml-1 | <=8 ug ml-1 | <=8 ug ml-1 |
| ≤ 0.06 µg/mL | ≤ 0.06 µg/mL | ≤ 0.06 µg/mL | ≤ 0.06 µg/mL | ≤ 0.06 µg/mL | ≤ 0.06 µg/mL | ≤ 0.06 µg/mL | ≤ 0.06 µg/mL | CC[C@H]1OC(=O)[C@H](C)C(=O)[C@H](C)[C@@H](O[C@@H]2O[C@H](C)C[C@H](N(C)C)[C@H]2O)[C@](C)(OC)C[C@@H](C)C(=O)[C@H](C)[C@H]2N(CCCCn3cnc(-c4cccnc4)c3)C(=O)O[C@]12C [TELITHROMYCIN] | <=0.5 ug ml-1 | <=0.5 ug ml-1 |  |  |  |  | <=0.5 ug ml-1 | <=0.5 ug ml-1 |
| 0.125 µg/mL (≈ 0.17 µM) | 1 µg/mL (≈ 1.36 µM) | 2 µg/mL (≈ 2.73 µM) | 0.125 µg/mL (≈ 0.17 µM) |  |  | 0.125 µg/mL (≈ 0.17 µM) |  | CC[C@H]1OC(=O)[C@H](C)[C@@H](O[C@H]2C[C@@](C)(OC)[C@@H](O)[C@H](C)O2)[C@H](C)[C@@H](O[C@@H]2O[C@H](C)C[C@H](N(C)C)[C@H]2O)[C@](C)(O)C[C@@H](C)C(=O)[C@H](C)[C@@H](O)[C@]1(C)O [ERYTHROMYCIN] | <=1 ug ml-1 | <=1 ug ml-1 |  |  |  |  | <=1 ug ml-1 | <=1 ug ml-1 |
| ≤ 0.06 µg/mL | ≤ 0.06 µg/mL | ≤ 0.06 µg/mL | ≤ 0.06 µg/mL | ≤ 0.06 µg/mL | ≤ 0.06 µg/mL | ≤ 0.06 µg/mL | ≤ 0.06 µg/mL | CC1(C)S[C@@H]2[C@H](NC(=O)[C@H](N)c3ccc(O)cc3)C(=O)N2[C@H]1C(=O)O [AMOXICILLIN] | <=0.5 ug ml-1 | <=0.5 ug ml-1 | <=0.5 ug ml-1 | <=0.5 ug ml-1 | <=0.5 ug ml-1 | <=0.5 ug ml-1 | <=0.5 ug ml-1 | <=0.5 ug ml-1 |
| 1 µg/mL (≈ 5.84 µM) | 4 µg/mL (≈ 23.4 µM) | 8 µg/mL (≈ 46.7 µM) | 1 µg/mL (≈ 5.84 µM) | 2 µg/mL (≈ 11.7 µM) | 8 µg/mL (≈ 46.7 µM) | 1 µg/mL (≈ 5.84 µM) | 2 µg/mL (≈ 11.7 µM) | Cc1ncc([N+](=O)[O-])n1CCO [METRONIDAZOLE] | <=2 ug ml-1 | <=2 ug ml-1 | <=8 ug ml-1 | <=8 ug ml-1 | <=8 ug ml-1 | <=8 ug ml-1 | <=2 ug ml-1 | <=2 ug ml-1 |
| ≤ 0.06 µg/mL | ≤ 0.06 µg/mL | ≤ 0.06 µg/mL | ≤ 0.06 µg/mL | ≤ 0.06 µg/mL | ≤ 0.06 µg/mL | ≤ 0.06 µg/mL | ≤ 0.06 µg/mL | O=C(O)c1cn(C2CC2)c2cc(N3CCNCC3)c(F)cc2c1=O [CIPROFLOXACIN] | <=0.5 ug ml-1 | <=0.5 ug ml-1 |  |  |  |  | <=0.5 ug ml-1 | <=0.5 ug ml-1 |
| ≤ 0.06 µg/mL | 2 µg/mL (≈ 2.43 µM) | 4 µg/mL (≈ 4.86 µM) | ≤ 0.06 µg/mL | ≤ 0.06 µg/mL | ≤ 0.06 µg/mL | ≤ 0.06 µg/mL | ≤ 0.06 µg/mL | CO[C@H]1/C=C/O[C@@]2(C)Oc3c(C)c(O)c4c(O)c(c(/C=N/N5CCN(C)CC5)c(O)c4c3C2=O)NC(=O)/C(C)=C\C=C\[C@H](C)[C@H](O)[C@@H](C)[C@@H](O)[C@@H](C)[C@H](OC(C)=O)[C@@H]1C [RIFAMPIN] | <=2 ug ml-1 | <=2 ug ml-1 |  |  |  |  | <=2 ug ml-1 | <=2 ug ml-1 |
| ≤ 0.06 µg/mL | 0.25 µg/mL (≈ 0.65 µM) | 2 µg/mL (≈ 5.2 µM) | ≤ 0.06 µg/mL | ≤ 0.06 µg/mL | 0.5 µg/mL (≈ 1.3 µM) | ≤ 0.06 µg/mL | 0.25 µg/mL (≈ 0.65 µM) | CC1(C)S[C@@H]2[C@H](NC(=O)[C@H](C(=O)O)c3ccsc3)C(=O)N2[C@H]1C(=O)O [TICARCILLIN] | <=16 ug ml-1 | <=16 ug ml-1 | <=32 ug ml-1 | <=32 ug ml-1 | <=32 ug ml-1 | <=32 ug ml-1 | <=16 ug ml-1 | <=16 ug ml-1 |
| ≤ 0.06 µg/mL | 0.25 µg/mL | 0.25 µg/mL | ≤ 0.06 µg/mL |  |  | ≤ 0.06 µg/mL |  | C[C@H]1c2cccc(O)c2C(=O)C2=C(O)[C@]3(O)C(=O)C(C(N)=O)=C(O)[C@@H](N(C)C)[C@@H]3[C@@H](O)[C@@H]21.O [DOXYCYCLINE] | <=4 ug ml-1 | <=4 ug ml-1 |  |  |  |  | <=4 ug ml-1 | <=4 ug ml-1 |
